For one assay, the system named is Bacillus subtilis. Put plainly: Paper disc antimicrobial test. Format: cell-based. The following applies: 10 μg/6 mm disc. Here is the method: (§1) An antimicrobial test against the following bacteria and fungi was performed using a paper disc (6 mm, manufactured by ADVANTEC) containing the compound (1a-1).
(§2) (1) Gram-Positive Bacteria • Mycobacterium smegmatis • Bacillus subtilis • Staphylococcus aureus • Micrococcus luteus
(§3) An antimicrobial test was performed with a 10 μg/6 mm disc, using the culture solution of the above bacteria and fungi. The test was conducted in accordance with the method described in Koyama et al., Calpinactam, a new anti-mycobacterial agent, produced by Mortierella alpina FKI-4905, The Journal of Antibiotics (2010) 63, pages 183 to 186.

A further assay relates to Micrococcus luteus. Kind of assay: Paper disc antimicrobial test. The following applies: 10 μg/6 mm disc. The format is cell-based. As to the method: as §1, §2, §3
The test system of a further assay is Mycobacterium smegmatis. Put plainly: Paper disc antimicrobial test. The format is cell-based. The following applies: 10 μg/6 mm disc. Here is the method: as §1, §2, §3
The next assay has as its system Staphylococcus aureus. Kind of assay: Paper disc antimicrobial test. The format is cell-based. The following applies: 10 μg/6 mm disc. Here is the method: as §1, §2, §3
A further assay deals with Candida albicans. Put plainly: Paper disc antimicrobial test. The following applies: 10 μg/6 mm disc. The format is cell-based. Here is the method:
as §1
(§4) (3) Yeast • Candida albicans
as §3

In assay [1] the test system is gram-positive bacteria. Kind of assay: Paper disc antimicrobial test, summary for gram-positive bacteria. Format: cell-based. The following applies: against gram-positive bacteria. Here is the method:
as §1, §2, §3

The test system of a further assay is yeasts. Kind of assay: Paper disc antimicrobial test, summary for yeasts. The format is cell-based. The following applies: against yeasts. Here is the method: as §1, §4, §3
For assay [2], the system named is gram-positive bacteria. The following applies: against gram-positive bacteria; Non-Patent Literature 1; cited from earlier work.

Inhibitory zone, antimicrobial action and antimicrobial activity data for 2 molecules are collected here from US20240158341A1, “COMPOUND, MANUFACTURING METHOD THEREFOR, ANTIMICROBIAL AGENT, AND MEDICINAL DRUG” (Murata Manufacturing Co., Ltd., priority 2021, published 2024).

For the molecule `[C-]#[N+][C@@H](Cc1ccc(O)c(-c2cc(C[C@H](NN)C(N)=O)ccc2O)c1)C(N)=O` [compound (1a-1)], the Inhibitory zone with Bacillus subtilis worked out at 14 mm; in the assay with Micrococcus luteus, 26 mm; with Mycobacterium smegmatis, 19 mm; with Staphylococcus aureus, 23 mm; with Candida albicans, 20 mm. Moreover, the antimicrobial action entry in the assay with gram-positive bacteria [1] and in the assay on yeasts was “showed an antimicrobial action” each time.

Consider hazimycin A, for which, in the assay with gram-positive bacteria [2], the antimicrobial activity entry is recorded as “had an antimicrobial activity”.
